# Assays:
# Neuro2a cells = test: MTT cytotoxicity assay, Neuro2a; format: cell-based, murine; conditions: Mus musculus, N2a, 24 h, read-out: IC50, Neuroblastoma, Neuro2a
# Procedure: (§1) To evaluate the antitumor activity of the synthesized soloxolone amides in brain tumor cells, the cytotoxicity of compounds 4–12, predicted as BBB-permeable (Figure 3), was further analyzed in human glioblastoma U87 and U118 cells, as well as human neuroblastoma KELLY and murine neuroblastoma Neuro2a cells.
# (§2) The cells in the exponential growth phase were seeded in quadruplicate in 96-well plates at a density of 1 × 10^4 cells/well for HeLa, U87, U118, KELLY and Neuro2a cells; 1.5 × 10^4 cells/well for HuTu-80 cells; 2 × 10^4 cells/well for B16 cells; and 7 × 10^3 cells/well for hFF3 fibroblasts. Cells were incubated under standard conditions overnight followed by their treatment with the investigated compounds (1–20 µM) for 24 h. Then, 10 µL of MTT solution was added to the cells to a final concentration of 0.5 mg/mL and plates were placed under standard conditions for 3 h followed by an aspiration of MTT-containing medium and a dissolution of formazan crystals with 100 µL of DMSO. The absorbance of each well was read at test and reference wavelengths of 570 and 620 nm, respectively, on a Multiscan RC plate reader (Thermo LabSystems, Helsinki, Finland).
# U118 cells [1] = test: MTT cytotoxicity assay, U118; format: cell-based; conditions: Homo sapiens, 24 h, read-out: IC50, Glioblastoma, U118
# Procedure: as §1, §2
# U87 glioblastoma cells = test: Annexin V-APC/PI apoptosis assay, U87; format: cell-based, human; conditions: for U87 Q4-2 (right upper quadrant, late apoptotic cells): 24 h, control 5.9%
# Procedure: To evaluate which form of cell death was induced by compound 12 in glioblastoma cells, its ability to stimulate apoptosis, necrosis or autophagy was examined.
# To quantify the percentage of cells undergoing apoptosis, glioblastoma U87 and U118 cells were seeded in 6-well plates at 2.8 × 10^5 cells/well in complete growth medium and incubated at standard conditions overnight followed by treatment with 12 at 4 µM for 24 h. Thereafter, the cells were harvested by trypsinization (TrypLE Express (Gibco, USA)) and centrifugation at 400 g for 5 min, washed with PBS and stained with 5 µL of Annexin V-APC (Sony Biotechnology Inc., San Jose, CA, USA) and 10 µL of propidium iodide (PI) (Invitrogen, Waltham, MA, USA) for 15 min at room temperature in the dark. After the incubation time, the cells were analyzed using a NovoCyte Flow Cytometer (ACEA Biosciences Inc., San Diego, CA, USA). For each sample, 10,000 events were acquired.
# U118 cells [2] = test: Trans-well motility (CIM-Plate, xCELLigence); format: cell-based, human; conditions: U118, 12 at 100 nM, starting after 20 h
# Procedure: To evaluate the ability of tryptamide 12 to suppress the migration potential of glioblastoma cells, two independent approaches were undertaken, including assessment of cell movement on a 2D surface (scratch assay) and through a trans-well membrane (CIM-Plate).
# To assess the trans-well motility of glioblastoma cells, U118 cells were seeded in quadruplicate at 2 × 10^4 cells/well in the upper chamber of a CIM-Plate in FBS-free DMEM in the presence or absence of 12 at 100 nM. To induce trans-well motility of the cells, DMEM containing 10% FBS was placed in the lower chamber of the CIM-Plate. After that, the electrical impedance of the sensor electrodes mounted at the lower side of the porous membrane separating the upper and lower chambers of the CIM-plate was further measured using an xCELLigence RTCA DP instrument (ACEA Biosciences Inc., San Diego, CA, USA) every 1 h for 48 h.
# U87 cells = test: MTT cytotoxicity assay, U87; format: cell-based; conditions: Homo sapiens, U-87 MG, 24 h, read-out: IC50, Glioblastoma, U87
# Procedure: as §1, §2
smiles,measurement,setting,value
CC1(C)C(=O)C(C#N)=C[C@]2(C)C3=CC(=O)[C@@H]4[C@@H]5C[C@@](C)(C(=O)NCCc6c[nH]c7ccccc67)CC[C@]5(C)CC[C@@]4(C)[C@]3(C)CC[C@@H]12 [compound 12],IC50,Neuro2a cells,1600 ± 100 nM
same,IC50,U118 cells [1],1900 ± 200 nM
same,"U87 Q4-2 (right upper quadrant, late apoptotic cells)",U87 glioblastoma cells; 12 at 2 µM,28%
same,"U87 Q4-2 (right upper quadrant, late apoptotic cells)",U87 glioblastoma cells; 12 at 4 µM,73.4%
same,necrotic cell death (left upper quadrant),"U87 glioblastoma cells; U87, 12 for 24 h",did not cause necrotic cell death
same,ability of cells to cross the porous membrane of the CIM-Plate,U118 cells [2],significantly suppressed
same,IC50,U87 cells,1900 ± 100 nM

# Reference: publication PMC9145754, “Novel Soloxolone Amides as Potent Anti-Glioblastoma Candidates: Design, Synthesis, In Silico Analysis and Biological Activities In Vitro and In Vivo” (Pharmaceuticals, 2022)
